Data: patent publication US20050267182A1, “Urea derivatives as FLT-3 modulators” (Ambit Biosciences Corporation, priority 2003, published 2005)

Assays:
[1] = target: T1, FLT3 (Homo sapiens, UniProt P36888); assay: Binding constant (Kd) measurement, phage-displayed kinase competition binding assay; details: for Binding Assay: FLT3(DKIN): FLT3(DKIN) construct; for Binding Assay: FLT3(JMminus): FLT3(JMminus) construct
T1 construct: FLT3(DKIN); made in house
T1 sequence (P36888 610-943 limits assumed): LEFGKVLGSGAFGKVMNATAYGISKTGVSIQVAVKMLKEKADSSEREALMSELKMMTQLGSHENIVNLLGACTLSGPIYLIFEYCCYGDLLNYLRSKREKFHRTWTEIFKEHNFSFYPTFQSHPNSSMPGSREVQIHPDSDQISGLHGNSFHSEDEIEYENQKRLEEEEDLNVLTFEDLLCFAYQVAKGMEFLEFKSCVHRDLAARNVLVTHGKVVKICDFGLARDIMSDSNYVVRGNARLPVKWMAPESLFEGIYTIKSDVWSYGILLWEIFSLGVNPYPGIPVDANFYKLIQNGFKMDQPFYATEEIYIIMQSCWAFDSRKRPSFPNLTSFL
Source text: Binding Constant (Kd) Measurements for Small-Molecule-Kinase Interactions
The term “ND” represents non-determined values.

[2] = system: MV4,11 cells; assay: FLT3 assay using MV4,11 cells (cellular proliferation, MTS); type: cell-based, human; details: cell assay code CS0001
Summary of the method: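 MV4,11 AML cells, […] switch to DMEM/10% FBS overnight, plated at 10,000 cells/well and exposed to serially diluted compounds in duplicate for 3 days at 37° C., 5% CO2. Proliferation read by MTS added for 2 h.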

[3] = system: CS0005; assay: Cell Assay: CS0005; type: cell-based; details: cell assay code CS0005
[4] = system: CS0002; assay: Cell Assay: CS0002; type: cell-based; details: cell assay code CS0002

SMILES | Binding Assay: FLT3(DKIN) [1] | Cell Assay: CS0001:IC50 [2] | Cell Assay: CS0005:IC50 [3] | Cell Assay: CS0002:IC50 [4] | IC50 [4] [µM] | Binding Assay: FLT3(JMminus) [1] | Binding Assay: FLT3(JMplus) ([1]; FLT3(JMplus) construct)
COc1cc(C(=O)Nc2ccc(NC(=O)Nc3cc(C(C)(C)C)on3)cc2)nc2ccccc12 [Compound N137] | + + + + | + + + + | + + + | + + |  |  | 
CC(C)(C)c1cc(NC(=O)Nc2ccc(OCCc3ccncc3)cc2)no1 [Compound G22] | + + + + | + + + + | + + + + |  | > 10 |  | 
CC(C)(C)c1cc(NC(=O)Nc2ccc(OCC3CCC3)cc2)no1 [Compound G39] | + + + + | + + + + | + + + | + + |  |  | 
CC(C)(C)c1cc(NC(=O)Nc2ccc(NC(=O)c3cccc4nsnc34)cc2)no1 [Compound N109] | + + + + | + + + + | + + + |  | > 10 |  | 
CC(C)(C)c1cc(NC(=O)Nc2ccc(Nc3ncnc4[nH]cnc34)cc2)no1 [Compound O3] | + + + + | + + + + | + + + + | + + |  |  | 
Cc1ccc2[nH]c(C(=O)Nc3ccc(NC(=O)Nc4cc(C(C)(C)C)on4)cc3)cc2c1 [Compound N127] |  | + + + + | + + + + | + + |  | + + + + | 
CC(C)(C)c1cc(NC(=O)Nc2ccc(NC(=O)c3ccc4ccccc4n3)cc2)no1 [Compound N143] | + + + + | + + + + | + + + + | + + |  |  | 
CC(C)(C)c1cc(NC(=O)Nc2ccc(NC(=O)c3cc4cccc5c4n(c3=O)CC5)cc2)no1 [Compound N60] | + + + + | + + + + | + + + + |  | > 10 |  | 
CC(C)(C)c1cc(NC(=O)Nc2ccc(OCc3ccc(Cl)cc3)cc2)no1 [Compound G34] | + + + + | + + + + | + + + |  | > 10 |  | 
CC(C)(C)c1cc(NC(=O)Nc2ccc(NC(=O)c3cn4nc(Cl)ccc4n3)cc2)no1 [Compound N9] | + + + + | + + + + | + + + + | + + |  |  | 
CC(C)(C)c1cc(NC(=O)Nc2ccc(NC(=O)c3cc4ccccc4[nH]3)cc2)no1 [Compound N161] |  | + + + + | + + + + | + + |  | + + + + | 
Cc1ccc2sc(C(=O)Nc3ccc(NC(=O)Nc4cc(C(C)(C)C)on4)cc3)cc2c1 [Compound N133] | + + + + | + + + + | + + + + | + + |  |  | 
Cc1cnc(C(=O)Nc2ccc(NC(=O)Nc3cc(C(C)(C)C)on3)cc2)c(C(=O)O)n1 [Compound N160] |  | + + + + | + + + + |  | > 10 | + + + + | 
CC(C)(C)c1cc(NC(=O)Nc2ccc(NC(=O)c3cccc4cccnc34)cc2)no1 [Compound N115] | + + + + | + + + + | + + + + | + + + |  |  | 
CC(C)(C)c1cc(NC(=O)Nc2ccc(NC(=O)CSCC(=O)Nc3ccccc3)cc2)no1 [Compound N72] |  | + + + + | + + + + | + + |  | + + + + | 
CC(C)(C)c1cc(NC(=O)Nc2ccc(NC(=O)c3ccc4ncccc4c3)cc2)no1 [Compound N151] | + + + + | + + + + | + + + + |  | > 10 |  | 
CC(C)(C)c1cc(NC(=O)Nc2ccc(C(=O)Nc3nccnc3N)cc2)no1 [Compound N157] |  | + + + + | + + + + |  | > 10 | + + + + | 
CC(C)(C)c1cc(NC(=O)Nc2ccc(NC(=O)c3ccccn3)cc2)no1 [Compound N188] | + + + + | + + + + | + + + + |  | > 10 | + + + + | + + +
Cn1nc(-c2ccccc2)c2cc(C(=O)Nc3ccc(NC(=O)Nc4cc(C(C)(C)C)on4)cc3)sc21 [Compound N5] | + + + + | + + + + | + + + + | + + + |  |  | 
Cc1cccnc1C(=O)Nc1ccc(NC(=O)Nc2cc(C(C)(C)C)on2)cc1 [Compound N41] | + + + + | + + + + | + + + + |  | > 10 |  | 
CC(C)(C)c1cc(NC(=O)Nc2ccc(OCc3ccccc3Cl)cc2)no1 [Compound G10] | + + + + | + + + + | + + + | + + |  |  | 
CC(C)(C)c1cc(NC(=O)Nc2ccc(-c3nc(-c4cccc5ccccc45)no3)cc2)no1 [Compound P5] | + + + + | + + + + | + + + |  | > 10 |  | 
Cc1cccc(C(=O)Nc2ccc(NC(=O)Nc3cc(C(C)(C)C)on3)cc2)n1 [Compound N121] | + + + + | + + + + | + + + + | + + |  |  | 
CC(C)(C)c1cc(NC(=O)Nc2ccc(NC(=O)c3cccc(F)n3)cc2)no1 [Compound N8] | + + + + | + + + + | + + + + |  | > 10 |  | 
CSc1ncc(Br)c(C(=O)Nc2ccc(NC(=O)Nc3cc(C(C)(C)C)on3)cc2)n1 [Compound N114] | + + + + | + + + + | + + + | + + |  |  | 
CC(C)(C)c1cc(NC(=O)Nc2ccc(-c3nc(-c4ccc(Cl)cc4)no3)cc2)no1 [Compound P7] | + + + + | + + + + | + + + |  | > 10 |  | 
CC(C)(C)c1cc(NC(=O)Nc2ccc(NC(=O)c3cccc(Cl)n3)cc2)no1 [Compound N4] | + + + + | + + + + | + + + + | + + |  |  | 
CC(C)(C)c1cc(NC(=O)Nc2ccc(NC(=O)c3cccc[n+]3[O-])cc2)no1 [Compound N81] |  | + + + + | + + + + |  | > 10 | + + + + | 
COC(=O)c1ccc(C(=O)Nc2ccc(NC(=O)Nc3cc(C(C)(C)C)on3)cc2)nc1 [Compound N113] | + + + + | + + + + | + + + + |  | > 10 |  | 
